Assay results published in patent US20240299566A1, “POLY-ARGININE DERIVATIVES FOR ENHANCING BRAIN-DERIVED GROWTH FACTOR TO MITIGATE NEUROLOGICAL DISORDERS” (priority 2021, published 2024).
Entries after “also recorded” stand apart in the source; their conditions may differ.

Legend:
[1] = tested on: repeated corticosterone-injected mice; assay: Tail Suspension Test in repeated corticosterone-injected mice; format: in vivo; conditions: single i.v. injection 1 mg/kg, day 7 after injection
Description: FIG. 3B is a scatter plot showing immobility time of control mice or depressed mice during a Tail Suspension Test, 7 days after injection of vehicle or Compounds of Formula (IV), *P<0.001 vs. control mice.
(§1) Preclinical identification of fast-onset antidepressants requires animal models that can accurately predict the delay to therapeutic onset. […] This has led to the approval of SPRAVATO® (esketamine), a ketamine-derived drug which is the first antidepressant with a novel mechanism of action approved in decades. The neurobiological changes believed to underlie depressive symptomatology have been reliably characterized using exogenous corticosterone (CORT) administration e.g. dendritic atrophy in hippocampal pyramidal cells with loss of CA3 and CA1 apical dendrites. […] Mice then received a single injection of compounds of Formula (IV) (1 mg/kg) or Vehicle (0.9% NaCl). Day 7 after injection of compounds of Formula (IV), immobility times in the FST and TST were tested as described. #P<0.001 vs. control mice.

[2] = tested on: SH-SY5Y cells transfected with HA-TrkB; assay: BDNF-stimulated TrkB signaling, western blot with phospho-specific antibodies; format: cell-based; conditions: 1 μM, FIG. 1D
Protocol: FIG. 1A depicts western blots probed with phospho-specific antibodies against p-MTOR, p-Erk and p-S6 from SHSY5Y cells transfected with TrkB and stimulated with 30 ng/ml BDNF. Blots depict expression before (0′), or 15 or 60 minutes (15′ and 60′) after BDNF stimulation.
SH-SY5Y cells were transfected with HA-TrkB. Following transfection, cells were starved in MEM for 3 hours. In the last 90 minutes of starvation, cells were treated with compounds of Formula (IV) or CN-2097 (shown below) at 1 μM and 5 μM. In the last hour of starvation, cells were stimulated with BDNF. Western blots probed with phospho-specific antibodies against p-MTOR, p-Erk and p-S6 (FIG. 1A).

[3] = tested on: microglia; assay: Microglia morphology in CORT mouse model of depression; format: in vivo, mice; conditions: acute injection, FIG. 4C
Description: Microglial cells are capable of influencing complex moods, synaptic plasticity, neurogenesis, and memory. […] Classically activated, pro-inflammatory microglia phenotypes (termed M1-like), often release inflammatory mediators that result in severely injured tissue. Alternatively activated, anti-inflammatory microglial phenotypes (termed M2-like) are neuroprotective in function and promote the survival of new neurons. In a healthy brain, most microglial cells are in a resting state. The morphology of resting microglia is poly-branched with many fine branches and a smaller cytoplasm, compared to active microglia that display an increased soma size and more irregular shape of their cell body. Activation of microglia results in the release of pro-inflammatory factors, namely IL-1β, TNFα and IL-6.

[4] = tested on: repeated corticosterone-injected mice; assay: Forced Swim Test in repeated corticosterone-injected mice; format: in vivo; conditions: single i.v. injection 1 mg/kg, day 7 after injection
Description: FIG. 3A is a scatter plot showing immobility time of control mice or depressed mice during a Forced Swim Test, 7 days after injection of vehicle or Compounds of Formula (IV), where *P<0.001 vs. control mice.
as §1

[5] = tested on: Angelman syndrome (AS) mice; assay: Hippocampal LTP (field EPSP slopes, CA1) in Angelman syndrome mice after IP injection; format: in vivo; conditions: for LTP (field EPSP slopes, CA1 region of hippocampus): IP, AS mice
Protocol: Field EPSP slopes were recorded in the CA1 region of the hippocampus.
Electrophysiological recordings and data analysis were performed as described in Cao et al., 2013 (Impairment of TrkB-PSD-95 Signaling in Angelman Syndrome. PLoS Biol 11, e1001478 (2013). Coronal brain slices (350 μm) were maintained in an interface chamber containing oxygenated artificial cerebral spinal fluid (ACSF) for at least 1 h before use. Slices were transferred to a submersion recording chamber perfused with oxygenated ACSF at 2 ml/min. Extracellular postsynaptic field potentials (fEPSPs) were performed by placing electrodes (borosilicate glass, resistance <1 MΩ) in the CA1 stratum radiatum and synaptic responses elicited by stimulation of the Schaffer Collaterals using concentric bipolar stimulation electrodes and recorded using an AxoClamp2B amplifier (Axon instruments) and EX1 differential amplifier (Dagan), and digitized at 10 kHz. Data were acquired using Igor Pro (Wave Metrics) and Neuromatic (neuromatic.thinkrandom.com). LTP was induced by high frequency stimulation (2×HFS for is at 100 Hz separated by 20 s) of Schaffer collateral afferents and LTP values are expressed as percentage of baseline±SEM. Paired two-tailed t-tests were used for statistical analysis.

[6] = tested on: ischemic episode; assay: Proposed treatment of patient with ischemia; format: in vivo, human; conditions: 50 mg/Kg i.v. within 2 hours of onset; outcome within 48 hours
Protocol: A person presents with an ischemic episode resulting sudden numbness the face, and left arm, confusion, and trouble speaking. […] Doses of from about 1 to about 100 mg/Kg will be used.

[7] = tested on: IL-1β; assay: Inflammatory cytokine expression in CORT behavioral model of depression; format: in vivo, mice; conditions: acute injection, FIG. 4A
Description: A major breakthrough in our understanding of the mechanistic basis for depression is the “inflammatory hypothesis”.

`CC(C)C(NC(=O)C1CCC(=O)NCCC(=O)NCCCCC(NC(=O)C(CCC(N)=O)NC(=O)C(NC(=O)C(Cc2c[nH]c3ccccc23)NC(=O)C2CCCN2C(=O)C2CCCN2C(=O)C(Cc2ccccc2)NC(=O)C(CO)NC(=O)CNC(=O)C(N)CSSCC(N)C(=O)NC(CCCNC(=N)N)C(=O)NC(CCCNC(=N)N)C(=O)NC(CCCNC(=N)N)C(=O)NC(CCCNC(=N)N)C(=O)NC(CCCNC(=N)N)C(=O)NC(CCCNC(=N)N)C(=O)NC(CCCNC(=N)N)C(N)=O)C(C)C)C(=O)NC(C(C)O)C(=O)N1)C(=O)O` (centres unmarked) [Formula (IV)] was tested, and the “immobility time in Tail Suspension Test” value [1] was “reduced the duration of immobility time”, the p-S6 activity ([2]; BDNF stimulation) was “enhanced p-S6 activity” and the “dose enhancing p-S6 activity, fold lower compared to CN2097” value [2] was 5 fold. The microglia phenotype [3] was “switches microglia from an active form (CORT depression) to the resting phenotype”, the “immobility time in Forced Swim Test” value [4] was “reduced the duration of immobility time” and the “restoration of hippocampal LTP, dose compared to CN2097” value ([5]; Angelman mouse model, FIG. 2A-2C) was “restored hippocampal LTP in an Angelman mouse model at a significantly lower dose as compared to CN2097”. For the same compound, the “LTP (field EPSP slopes, CA1 region of hippocampus)” value ([5]; 0.5 mg/kg) was “resulted in LTP; also recorded: LTP was observed”, the “LTP (field EPSP slopes, CA1 region of hippocampus)” value ([5]; 1 mg/kg) was “LTP was observed” and the “LTP (field EPSP slopes, CA1 region of hippocampus)” value ([5]; 2 mg/kg) was “LTP was observed”. The “patient outcome after ischemic episode” value [6] was “recovers without significant brain damage” and the IL-1β expression [7] was “blocks the increased expression of IL-1β”.
